Counter-ions that a name gives are not always drawn. Like-named read-outs stand apart in the source and are kept apart here.
Legend:
BRD4-BD2 = BRD4-BD2 (Homo sapiens (Human), UniProt O60885); assay: BRD4 AlphaScreen Assay (Example A2), BRD4-BD2; format: binding; conditions: read-out: BRD4 BD-2 enzyme IC50
Protocol: (§1) BRD4-BD1 and BRD4-BD2 assays were conducted in white 384-well polystyrene plate in a final volume of 40 μL for BD1 and 60 μL for BD2. Inhibitors were first serially diluted in DMSO and added to the plate wells before the addition of other reaction components. […] The assays were carried out at room temperature in the assay buffer (50 mM Tris-HCl, pH 7.5, 0.01% Tween-20, 0.01% BSA, 5 mM DTT), containing 50 nM Biotin-labeled tetra-acetylated histone H4 peptide (H4Ac4) and BRD4-BD1 or BRD4-BD2 protein at concentration less than 1 nM. […] After plate sealing, the plate was incubated in the dark at room temperature for 75 min. before reading on a PHERAstar FS plate reader (BMG Labtech). IC50 determination was performed by fitting the curve of percent control activity versus the log of the inhibitor concentration using the GraphPad Prism 5.0 software.

BRD4-BD1 = BRD4-BD1 (Homo sapiens (Human), UniProt O60885); assay: BRD4 AlphaScreen Assay (Example A2), BRD4-BD1; format: binding
Protocol: as §1

[1] = Assay A2, AlphaScreen, BRD4-BD2
[2] = Assay A2, AlphaScreen, BRD4-BD1, read-out: BRD4 BD-1 enzyme IC50

SMILES | IC50 (BRD4-BD2; [1]) | IC50 (BRD4-BD1; [2]) | IC50 (BRD4-BD2) | IC50 (BRD4-BD1; read-out: BRD4 BD-1 enzyme IC50) | IC50 (BRD4-BD1)
Cc1noc(C)c1-c1ccc2[nH]c(=O)n3c2c1CCC3c1ccccc1 (stereo not drawn) [Example 120, 7-(3,5-Dimethylisoxazol-4-yl)-4-phenyl-5,6-dihydro-4H-imidazo[4,5,1-ij]quinolin-2(1H)-one] | < 100 nM | < 100 nM | – | – | –
Cc1noc(C)c1-c1ccc2nc(C3CCCN(S(C)(=O)=O)C3)n3c2c1OC[C@@H]3c1ccccn1 (mixture of isomers) [Example 119, (4S)-7-(3,5-dimethylisoxazol-4-yl)-2-[1-(methylsulfonyl)piperidin-3-yl]-4-pyridin-2-yl-4,5-dihydroimidazo[1,5,4-de][1,4]benzoxazine (mixture of diastereomers)] | < 100 nM | < 100 nM | – | – | –
Cc1noc(C)c1-c1ccc2nc(C3=CCNC3)n3c2c1OC[C@@H]3c1ccccn1 [Example 105, (4S)-2-(2,5-dihydro-1H-pyrrol-3-yl)-7-(3,5-dimethylisoxazol-4-yl)-4-pyridin-2-yl-4,5-dihydroimidazo[1,5,4-de][1,4]benzoxazine] | < 100 nM | < 100 nM | – | – | –
Cc1noc(C)c1-c1ccc2[nH]c(=O)n3c2c1OCC3c1cccnc1C(N)=O (stereo not drawn) [Example 127, 3-[7-(3,5-Dimethylisoxazol-4-yl)-2-oxo-1,2,4,5-tetrahydroimidazo[1,5,4-de][1,4]benzoxazin-4-yl]pyridine-2-carboxamide trifluoroacetate] | – | – | < 100 nM | < 100 nM | –
Cc1noc(CF)c1-c1ccc2[nH]c(=O)n3c2c1OCC3c1ccccn1 (stereo not drawn) [Example 125, 7-[5-(Fluoromethyl)-3-methylisoxazol-4-yl]-4-pyridin-2-yl-4,5-dihydroimidazo[1,5,4-de][1,4]benzoxazin-2(1H)-one trifluoroacetate] | < 100 nM | 1000 to 10000 nM | – | – | –
CNC(=O)c1ncccc1C1COc2c(-c3c(C)noc3C)ccc3[nH]c(=O)n1c23 (stereo not drawn) [Example 128, 3-[7-(3,5-Dimethylisoxazol-4-yl)-2-oxo-1,2,4,5-tetrahydroimidazo[1,5,4-de][1,4]benzoxazin-4-yl]-N-methylpyridine-2-carboxamide] | < 100 nM | < 100 nM | – | – | –
Cc1noc(C)c1-c1ccc2c3c1CCC(c1ccccc1)n3c(=O)n2C (racemic) [Example 121, 7-(3,5-Dimethylisoxazol-4-yl)-1-methyl-4-phenyl-5,6-dihydro-4H-imidazo[4,5,1-ij]quinolin-2(1H)-one] | < 100 nM | 100 to 1000 nM | – | – | –
Cc1noc(C)c1-c1ccc2nc(C3=CCN(C(=O)OC(C)(C)C)C3)n3c2c1OC[C@@H]3c1ccccn1 [Example 98, tert-Butyl 3-[(4S)-7-(3,5-dimethylisoxazol-4-yl)-4-pyridin-2-yl-4,5-dihydroimidazo[1,5,4-de][1,4]benzoxazin-2-yl]-2,5-dihydro-1H-pyrrole-1-carboxylate] | < 100 nM | < 100 nM | – | – | –
Cc1noc(C)c1-c1ccc2nc(C3CCN(C(=O)OC(C)(C)C)C3)n3c2c1OC[C@@H]3c1ccccn1 (single isomer, unassigned; diastereoisomer 1) [Example 101A] | < 100 nM | < 100 nM | – | – | –
CC(=O)N1CCC(c2nc3ccc(-c4c(C)noc4C)c4c3n2[C@@H](c2ccccn2)CO4)CC1 [Example 109, (4S)-2-(1-Acetylpiperidin-4-yl)-7-(3,5-dimethylisoxazol-4-yl)-4-pyridin-2-yl-4,5-dihydroimidazo[1,5,4-de][1,4]benzoxazine] | < 100 nM | < 100 nM | – | – | –
Cc1noc(C)c1-c1cc(-c2ccc(O)nc2)c2[nH]c(=O)n3c2c1OC[C@@H]3c1ccccn1 [Example 259, (4S)-7-(3,5-dimethylisoxazol-4-yl)-9-(6-hydroxypyridin-3-yl)-4-pyridin-2-yl-4,5-dihydroimidazo[1,5,4-de][1,4]benzoxazin-2(1H)-one] | < 100 nM | 100 to 1000 nM | – | – | –
C=Cc1nc2ccc(-c3c(C)noc3C)c3c2n1[C@@H](c1ccccn1)CO3 [Example 88, (4S)-7-(3,5-Dimethylisoxazol-4-yl)-4-pyridin-2-yl-2-vinyl-4,5-dihydroimidazo[1,5,4-de][1,4]benzoxazine] | < 100 nM | < 100 nM | – | – | –
Cc1noc(C)c1-c1cc(C2=CCNCC2)c2[nH]c(=O)n3c2c1OC[C@@H]3c1ccccn1 [Example 87, (4S)-7-(3,5-dimethylisoxazol-4-yl)-4-pyridin-2-yl-9-(1,2,3,6-tetrahydropyridin-4-yl)-4,5-dihydroimidazo[1,5,4-de][1,4]benzoxazin-2(1H)-one bis(2,2,2-trifluoroacetate)] | – | – | < 100 nM | – | 100 to 1000 nM
Cc1noc(C)c1-c1cc(-c2cncnc2)c2[nH]c(=O)n3c2c1OC[C@@H]3c1ccccn1 [Example 84, (4S)-7-(3,5-dimethylisoxazol-4-yl)-4-pyridin-2-yl-9-pyrimidin-5-yl-4,5-dihydroimidazo[1,5,4-de][1,4]benzoxazin-2(1H)-one 2,2,2-trifluoroacetate] | < 100 nM | 100 to 1000 nM | – | – | –
Cc1noc(C)c1-c1cc(-c2cn[nH]c2C)c2[nH]c(=O)n3c2c1OCC3c1ccccn1 (stereo not drawn) [Example 257, 7-(3,5-dimethylisoxazol-4-yl)-9-(3-methyl-1H-pyrazol-4-yl)-4-pyridin-2-yl-4,5-dihydroimidazo[1,5,4-de][1,4]benzoxazin-2(1H)-one] | < 100 nM | 100 to 1000 nM | – | – | –
Cc1noc(C)c1-c1ccc2[nH]c(=O)n3c2c1OCC3c1ccc(F)cn1 (stereo not drawn) [Example 19, 7-(3,5-Dimethylisoxazol-4-yl)-4-(5-fluoropyridin-2-yl)-4,5-dihydroimidazo[1,5,4-de][1,4]benzoxazin-2(1H)-one] | < 100 nM | < 100 nM | – | – | –
Cc1noc(C)c1-c1ccc2nc(N3CC(O)C3)n3c2c1OCC3c1cccnc1 (single isomer, unassigned) [Example 160D, 1-[7-(3,5-Dimethylisoxazol-4-yl)-4-pyridin-3-yl-4,5-dihydroimidazo[1,5,4-de][1,4]benzoxazin-2-yl]azetidin-3-ol] | 1000 to 10000 nM | 1000 to 10000 nM | – | – | –
Cc1noc(C)c1-c1ccc2nc(C(C)O)n3c2c1OC[C@@H]3c1ccccn1 (stereo partly drawn) [Example 90, 1-[(4S)-7-(3,5-Dimethylisoxazol-4-yl)-4-pyridin-2-yl-4,5-dihydroimidazo[1,5,4-de][1,4]benzoxazin-2-yl]ethanol] | < 100 nM | < 100 nM | – | – | –
Cc1noc(C)c1-c1ccc2[nH]c(=O)n3c2c1OC(C(=O)NCCO)C3c1ccccc1 (single isomer, unassigned) [Example 48A, 7-(3,5-Dimethylisoxazol-4-yl)-N-(2-hydroxyethyl)-2-oxo-4-phenyl-1,2,4,5-tetrahydroimidazo[1,5,4-de][1,4]benzoxazine-5-carboxamide] | < 100 nM | 100 to 1000 nM | – | – | –
Cc1noc(C)c1-c1ccc2nc(C3=CCN(C(=O)OC(C)(C)C)CC3)n3c2c1OC[C@@H]3c1ccccn1 [Example 97, tert-Butyl 4-[(4S)-7-(3,5-dimethylisoxazol-4-yl)-4-pyridin-2-yl-4,5-dihydroimidazo[1,5,4-de][1,4]benzoxazin-2-yl]-3,6-dihydropyridine-1(2H)-carboxylate] | < 100 nM | < 100 nM | – | – | –
Cc1noc(C)c1-c1cc(-c2ccccc2)c2[nH]c(=O)n3c2c1OCC3c1ccccc1 (stereo not drawn) [Example 43, 7-(3,5-Dimethylisoxazol-4-yl)-4,9-diphenyl-4,5-dihydroimidazo[1,5,4-de][1,4]benzoxazin-2(1H)-one] | < 100 nM | < 100 nM | – | – | –
Cc1noc(C)c1-c1cc(CN)c2[nH]c(=O)n3c2c1OC[C@@H]3c1ccccn1 [Example 137, (4S)-9-(Aminomethyl)-7-(3,5-dimethylisoxazol-4-yl)-4-pyridin-2-yl-4,5-dihydroimidazo[1,5,4-de][1,4]benzoxazin-2(1H)-one bis(trifluoroacetate)] | < 100 nM | 1000 to 10000 nM | – | – | –
Cc1noc(C)c1-c1cc(Cl)c2[nH]c(=O)n3c2c1OCC3c1ccccn1 (single isomer, unassigned) [Example 266B, 9-chloro-7-(3,5-dimethylisoxazol-4-yl)-4-pyridin-2-yl-4,5-dihydroimidazo[1,5,4-de][1,4]benzoxazin-2(1H)-one] | 100 to 1000 nM | 1000 to 10000 nM | – | – | –
Cc1noc(C)c1-c1cc(F)c2[nH]c(=O)n3c2c1OCC3c1ccccn1 (stereo not drawn) [Example 265B, 7-(3,5-dimethylisoxazol-4-yl)-9-fluoro-4-pyridin-2-yl-4,5-dihydroimidazo[1,5,4-de][1,4]benzoxazin-2(1H)-one] | < 100 nM | < 100 nM | – | – | –
Cc1noc(C)c1-c1cc(CO)c2[nH]c(=O)n3c2c1OCC3c1ccccn1 (stereo not drawn) [Example 254, 7-(3,5-Dimethylisoxazol-4-yl)-9-(hydroxymethyl)-4-pyridin-2-yl-4,5-dihydroimidazo[1,5,4-de][1,4]benzoxazin-2(1H)-one] | < 100 nM | < 100 nM | – | – | –
Cc1noc(C)c1-c1cc(C)c2[nH]c(=O)n3c2c1OCC3c1ccccc1 (stereo not drawn) [Example 46, 7-(3,5-Dimethylisoxazol-4-yl)-9-methyl-4-phenyl-4,5-dihydroimidazo[1,5,4-de][1,4]benzoxazin-2(1H)-one] | < 100 nM | < 100 nM | – | – | –
Cc1noc(C)c1-c1ccc2nc(N3CCC(NC(=O)C(C)C)CC3)n3c2c1OCC3c1ccccn1 (stereo not drawn) [Example 244] | < 100 nM | – | – | – | –
Cc1noc(C)c1-c1ccc2nc(C3CCN(C(=O)C4CC4)C3)n3c2c1OC[C@@H]3c1ccccn1 (single isomer, unassigned; diastereomer 2) [Example 114B] | – | < 100 nM | – | – | –

— patent US9624241B2 (Incyte Corporation, priority 2013, dated 2017)
